The values below come from patent publication US10407488B2, “Therapy for treatment or prevention of conditions associated with bleeding or hypocoagulation” (THE REGENTS OF THE UNIVERSITY OF CALIFORNIA, priority 2013, dated 2019).

Test [1] deals with clot lysis time in NHP with anti-FVIII antibody. Kind of test: Clot lysis assay (t-PA mediated) in normal human plasma with anti-FVIII antibody. The test is classed as biochemical. As to the method: FIGS. 28A and 28B show the synergistic effect of ^superFVa in combination with rhFVIIa on clot stabilization in NHP spiked with anti-FVIII antibody. Clot lysis time was determined by t-PA mediated fibrinolysis following thrombin induced fibrin clot formation in NHP spiked with anti-FVIII-antibody. (A) Increasing concentrations of rhFVIIa were added in the absence (open circle) or presence (open square) of ^superFVa (0.37 nM). (B) Increasing concentrations of ^superFVa were added in the absence (open circle) or presence (open square) of rhFVIIa (0.37 nM). Clot lysis time of NHP without inhibitors in the absence (open upward triangle) or presence of CPI (open downward triangle) represent control experiments. Normal human plasma; NHP. Carboxypeptidase inhibitor from potato tubers; CPI. Error bars represent standard error of the mean (n≥3).
Clot stability was studied as t-PA induced clot lysis time in NHP with anti-FVIII antibodies (GMA8015) at 10 μg/mL, as well as in FVIIIdP. The concentration of antibody was based on maximal shortening of the clot lysis time from approximately 105 min to 75 min following antibody titration (data not shown). The clot lysis time in the presence of antibody (10 μg/mL) was similar to the clot lysis time in the presence of CPI, which was used as control since it causes suppression of Thrombin Activatable Fibrinolysis Inhibitor (TAFI) activation. […]

Test [2] has as its system thrombin generation in normal human plasma. In words: Thrombin generation in NHP in the presence of rivaroxaban or apixaban. The test is classed as biochemical. The note with it: factor alone: rhFVIIa 2 μg/ml, ^superFVa 400 nM; NOAC 200 nM. The protocol: Thrombin generation or Endogenous Thrombin Potential (ETP) assays were performed as described. Briefly, plasma samples supplemented with CTI, TF, PCPS were preincubated […] in the presence or absence of rivaroxaban, apixaban, Kcentra®, NovoSeven® or ^superFVa. Thrombin generation was initiated by addition of CaCl2 and Z-Gly-Gly-Arg-AMC in HBS/0.5% BSA. The final reaction mixture contained, 50% plasma, 0.725 μM CTI, 0.2 Pm TF, 4 μM PCPS vesicles, 0.5 mM Z-GGR-AMC, 7.6 mM CaCl2 in a total volume of 100 μl. Concentrations of rivaroxaban, apixaban, Kcentra®, NovoSeven® or ^superFVa are indicated in the result section and in the figure legends. Fluorescence was measured at excitation/emission wavelengths of […] using Gemini EM fluorescent plate reader (Molecular Devices). Fluorescence time course data were converted to Nm thrombin as described. ETP, defined as the area under the curve (AUC) and the peak height were determined using Origin software.

In test [3] the test system is Balb/c mice treated with anti-FVIII antibodies. Kind of test: Tail clip bleeding assay in Balb/c mice treated with anti-FVIII antibodies. The test is classed as in vivo, mouse. To be noted: 20 minutes. As to the method:
Mice were anesthetized, placed on temperature controlled heating pads (37° C.), and the distal portion of the tail was cut at 1.5 mm diameter after which the tail was immersed in a predefined volume of 37° C. saline (0.9% NaCl) for 20 minutes. Blood loss was determined by the hemoglobin concentration in the saline solution after red cell lysis with 2% acetic acid and measured by absorbance at 405 nm. Using a hemoglobin standard derived from defined blood volumes, blood loss was calculated assuming a hematocrit of 46% and expressed in μL/g body weight. Groups of FVIII-deficient mice were injected intravenously (retro-orbital) within 2 minutes prior to tail cut with equal volumes ([…]) of sterile saline for injection (0.9%, Hospira Inc.), rhFVIII 200 units/kg FVIII (Xyntha®, Pfizer, NY, N.Y., USA) ^superFVa, rhFVIIa (NovoSeven®, NovoNordisk, Bagsvaerd, Denmark) or a combination of ^superFVa and rhFVIIa. All agents were diluted in sterile sodium chloride 0.9% for injection (Hospira Inc). […]
To further elucidate the efficiency of ^superFVa to reduce bleeding in presence of inhibitors for FVIII either alone or in combination with rhFVIIa, blood loss during a 20 minute bleeding period was determined in a tail transection model in Balb/c mice treated with anti-FVIII antibodies (0.25 mg/kg). […]

Test [4] relates to Balb/c mice. In words: Ex vivo whole blood aPTT after intravenous APC in Balb/c mice. Set-up: species or system mouse. As to the method:
Recombinant murine APC was administered intravenously to Balb/c mice by tail vein injection 2 minutes prior to retroorbital blood harvest in siliconized microcapillaries (75 μL) prefilled with 20 μL Sodium-Citrate (3.8%). Whole blood aPTT was performed immediately, whereby 50 μL of blood were mixed with 50 μL of aPTT reagent (APTT-XL, Pacific Hemostasis) and incubated at 37° C. for 3 minutes in the presence of FVa or buffer. Following addition of 25 μL of 130 mM CaCl2 in HBS, 0.5% BSA, the clotting time was recorded using an ST4 coagulometer (Diagnostica Stago).

For the substance “^superFVa: engineered APC-resistant FVa variant (SEQ ID NO:4): R306Q, R506Q, R679Q, Cys609-Cys1691 disulfide, S2183A, B-domain deleted”, the “concentration at which clot lysis times returned to normal” value in test [1] (factor alone, NHP with anti-FVIII antibody) was determined as 3.33 nM. The “concentration showing enhancement of clot lysis time” value in test [1] (factor individually, 10 μg/ml anti-FVIII antibody) fell in the range of 2 to 5 µg/mL. Further, in test [2], the “ability to enhance the ETP of NHP suppressed with rivaroxaban or apixaban” value is “nor ^superFVa at high concentration (400 nM) were able to enhance the ETP”. The blood loss was 19.47 µL/g in test [3] (^superFVa 10 U/kg) and 9.97 µL/g in test [3] (^superFVa 40 U/kg). Further, the “effect on whole blood aPTT clotting times” value in test [4] (1 nM added to whole blood after iv APC 0.5 mg/kg) is “significantly normalized aPTT clotting times”. Also, the “mean whole blood aPTT” value in test [4] (FVa variant added ex vivo to whole blood drawn after APC 0.5 mg/kg injection) stood at 30 s.
